Patent US20100190856A1, “Novel Polyhydroxylated Compounds as Fatty Acid Synthase (FASN) Inhibitors” (UNIVERSIDAD COMPLUTENSE DE MADRID, priority 2007, published 2010)

What was measured:
[1] = test system: MDA-MB-231 breast cancer cells; test: MTT cytotoxicity assay, MDA-MB-231 breast cancer cells; format: cell-based, human; settings: Homo sapiens, MDA-MB-231 cells, 48 h, read-out: IC50, growth inhibition, MDA-MB-231
Method: (§1) MCF-7 and MDA-MB-231 breast cancer cells were obtained from the American Type Culture Collection (ATCC) and were routinely grown in Dulbecco's modified Eagle's medium (DMEM, Gibco) containing 10% fetal bovine serum (FBS, Bio-Whittaker), 1% L-glutamine, 1% sodium pyruvate, 50 U/mL penicillin and 50 μg/mL streptomycin. SK-Br3 breast cancer cells were obtained from Eucellbank (Universidad de Barcelona, Spain) and were passaged in McCoy's 5 A medium containing 10% FBS, 1% L-glutamine, 1% sodium pyruvate, 50 U/mL penicillin and 50 μg/mL streptomycin. Non-malignant fibroblasts N-1 were obtained from Eucellbank (Universidad de Barcelona, Spain) and were passaged in DMEM medium containing 10% FBS, 1% L-glutamine, 1% sodium pyruvate, 50 U/mL penicillin and 50 μg/mL streptomycin. The cells remained free of Mycoplasma and were propagated in adherent culture according to established protocols. Cells were maintained at 37° C. in a humidified atmosphere of 95% air and 5% CO2.
(§2) Drug sensitivity was determined using a standard colorimetric MTT (3-4,5-dimethylthiazol-2-yl-2,5-diphenyltetrazolium bromide) assay. Briefly, cells were plated out at a density of 7×10^3 cells/100 μL/well in 96-well microtitre plates and allowed an overnight period for attachment. Then the medium was removed and fresh medium along with various concentrations of the tested compound were added to the cultures for a period of 48 h. Following the treatment, the cells were fed with drug-free medium (100 μL/well) and 10 μL of MTT solution (5 mg/mL; Sigma, St. Louis, Mo.), and the incubation was prolonged for 3 h at 37° C. After carefully removing the supernatants, the MTT-formazan crystals formed by metabolically viable cells were dissolved in dimethyl sulphoxide (100 μL/well) and the absorbance was measured at 570 nm in a multi-well plate reader (Model Anthos Labtec 2010 1.7 reader).

[2] = test system: AKT; test: Immunoblot analysis of AKT and phospho-AKT in SK-Br3 cells; format: cell-based, human; settings: for time after treatment at which a marked decrease of p-AKT was observed / expression levels of p-AKT proteins: SK-Br3, 30 μM; for expression levels of p-AKT proteins: 6 hours after treatment; for active form of Akt: within 2 h after treatment
Method: (§3) Following the treatment of SK-Br3 cells with the studied compound at the desired concentrations and time intervals, cells were harvested by treatment with trypsin-EDTA solution, washed twice with PBS and stored at −80° C. The cells were lysed in lysis buffer (1 mM EDTA, 150 mM NaCl, 100 μg/mL PMSF and 50 mM Tris-HCl, pH 7.5) and kept at 4° C. while they were routinely mixed every 2 min on the vortex during 30 min. A sample was taken for measurement of protein content by a BioRad assay (Bio-Rad Laboratories). Equal amounts of protein were heated in sodium dodecyl sulphate (SDS) sample buffer (Laemmli) for 5 min at 95° C., separated on a 3-8% SDS-polyacrylamide gel (FASN, p185^HER2/neu, phospho-p185^HER2/neu) or 4-12% SDS-polyacrylamide gel (AKT, phospho-AKT, ERK1/2, phospho-ERK1/2 and PARP) and transferred onto nitrocellulose membranes. The membranes were incubated for 1 h at room temperature in blocking buffer (2.5% powdered-skim milk in TBS-T [10 mM Tris-HCl pH 8.0, 150 mM NaCl and 0.05% Tween-20]) to prevent non-specific antibody binding. The primary antibody used was a monoclonal antibody. Antibody dilution was prepared in blocking solution and blots were incubated with monoclonal antibody overnight at 4° C. […] Blots were re-probed with an antibody for β-actin to control for protein loading and transfer.

[3] = Weight loss in vivo (data not shown)
[4] = test system: Non-malignant fibroblasts N-1; test: MTT cytotoxicity assay, non-malignant fibroblasts N-1; format: cell-based; settings: for IC50: Fibroblast, non-malignant fibroblasts, MTT, 48 h, read-out: IC50, growth inhibition, Fibroblasts; for effect on non-malignant cells / normal fibroblasts: at concentrations similar to IC50; for effects in cell death / morphology changes in non-malignant cells: up to doses three-fold their cytotoxic IC50 value in tumoral cells
Method: as §1, §2

[5] = test system: PARP; test: Immunoblot analysis of PARP cleavage in SK-Br3 cells; format: cell-based, human; settings: for 89 KDa product of PARP cleavage: SK-Br3 cells, 30 μM, 12, 24 and 48 h
Method: as §3
Western blot analysis for poly-ADP-ribose polymerase (PARP) was performed on SK-Br3 cells exposed for 12, 24 and 48 h to compound f (30 μM) and compound i (30 μM). Apoptosis and induction of caspase activity was confirmed by Western blotting analysis showing cleavage of PARP.

[6] = test system: HER2; test: Immunoblot analysis of p185HER2/neu and phospho-p185HER2/neu in SK-Br3 cells; format: cell-based, human; settings: for level of total HER2 / expression levels of p-HER2 proteins / levels of p-HER2 proteins: SK-Br3, 30 μM; for level of total HER2: Western blotting or HER2-specific ELISA; for expression levels of p-HER2 proteins: within 2 h after exposure; for levels of p-HER2 proteins: within 6 h after treatment; for active form of oncoprotein HER2: within 2 h after treatment
Method: as §3
We have examined the time-dependent effects of compound f (30 μM) and compound i (30 μM) on HER2, AKT and ERK1/2 activation.

[7] = test system: ERK1/2; test: Immunoblot analysis of ERK1/2 and phospho-ERK1/2 in SK-Br3 cells; format: cell-based, human; settings: for activation of p-ERK1/2 proteins: SK-Br3, 30 μM, 6 h after treatment; for active form of ERK1/2: within 2 h after treatment
Method: as §3

In the case of `O=C(Oc1cc(OC(=O)c2cc(O)c(O)c(O)c2)c2ccccc2c1)c1cc(O)c(O)c(O)c1` [f, 1,3-bis[(3,4,5-trihydroxybenzoyl)oxy]naphthalene], the IC50 [1] is reported as 78.7 ± 4 µM, the “time after treatment at which a marked decrease of p-AKT was observed” value [2] is reported as 24 h and the “expression levels of p-AKT proteins” value [2] is reported as “low decrease”. For the same compound, the “active form of Akt” value [2] was “marked decrease”, the “weight loss in vivo” value [3] was “without inducing weight loss in vivo” and the IC50 [4] was greater than 150 µM. For the same compound, the “effect on non-malignant cells / normal fibroblasts” value [4] was “not affected”, the “effects in cell death / morphology changes in non-malignant cells” value [4] was “No significant effects” and the “induction of apoptosis (cleavage of PARP)” value [5] was “induced apoptosis”. For the same compound, the “89 KDa product of PARP cleavage” value [5] was “marked increase”, the “level of total HER2” value [6] was “no significant change” and the “expression levels of p-HER2 proteins” value [6] was “markedly decreased”. The “levels of p-HER2 proteins” value [6] was “total decrease”, the “active form of oncoprotein HER2” value [6] was “marked decrease” and the “activation of p-ERK1/2 proteins” value [7] was “marked decrease”. For the same compound, the “active form of ERK1/2” value [7] was “marked decrease”.
With `O=C(Oc1ccc(OC(=O)c2cc(O)c(O)c(O)c2)c2ccccc12)c1cc(O)c(O)c(O)c1` [i, 1,4-bis[(3,4,5-trihydroxybenzoyl)oxy]naphthalene] the IC50 [1] was 62.5 ± 10.6 µM, the “time after treatment at which a marked decrease of p-AKT was observed” value [2] was 12 h and the “expression levels of p-AKT proteins” value [2] was “low decrease”. For the same compound, the “active form of Akt” value [2] was “marked decrease”, the “weight loss in vivo” value [3] was “without inducing weight loss in vivo” and the IC50 [4] was greater than 150 µM. The “effect on non-malignant cells / normal fibroblasts” value [4] was “not affected”, the “effects in cell death / morphology changes in non-malignant cells” value [4] was “No significant effects” and the “induction of apoptosis (cleavage of PARP)” value [5] was “induced apoptosis”. For the same compound, the “89 KDa product of PARP cleavage” value [5] was “marked increase”, the “level of total HER2” value [6] was “no significant change” and the “expression levels of p-HER2 proteins” value [6] was “markedly decreased”. For the same compound, the “levels of p-HER2 proteins” value [6] was “total decrease”, the “active form of oncoprotein HER2” value [6] was “marked decrease” and the “activation of p-ERK1/2 proteins” value [7] was “marked decrease”. For the same compound, the “active form of ERK1/2” value [7] was “marked decrease”.
